The results in this text go back to patent US20230212180A1, “SUBSTITUTED PYRAZINE COMPOUND, PHARMACEUTICAL COMPOSITION COMPRISING SAME, AND USE THEREOF” (Sichuan Kelun-Biotech Biopharmaceutical Co., Ltd., priority 2020, published 2023).

Holding throughout (test): Kinase selectivity test (ThermoFisher)
Assay type in all cases: biochemical
What all share (parameters): concentration or dose not given beside the values

One experiment addresses T1, MET (cMet) (Homo sapiens, UniProt P08581).
T1 construct: purchased ThermoFisher USA (contract testing)
The method, then:
(§1) Test Example 11: Kinase Selectivity Test
(§2) 1. Experimental Purpose: Tests for selectivity of the compounds of the present disclosure for a plurality of kinases were carried out to assess the safety risk of the compounds of the present disclosure.
(§3) 2. Test institution: ThermoFisher USA
(§4) 3. Testing methods: LanthaScreen binding, Z′-LYTE, Adapta
(§5) 4. Test targets: 100 targets in total

The next experiment concerns the target T2, GSK3B (GSK3 beta) (Homo sapiens, UniProt P49841).
T2 construct: purchased ThermoFisher USA (contract testing)
Here is the method: as §1, §2, §3, §4, §5

The target in a further experiment is T3, FLT3 (Homo sapiens, UniProt P36888).
T3 construct: purchased ThermoFisher USA (contract testing)
T3 sequence (P36888 27-993): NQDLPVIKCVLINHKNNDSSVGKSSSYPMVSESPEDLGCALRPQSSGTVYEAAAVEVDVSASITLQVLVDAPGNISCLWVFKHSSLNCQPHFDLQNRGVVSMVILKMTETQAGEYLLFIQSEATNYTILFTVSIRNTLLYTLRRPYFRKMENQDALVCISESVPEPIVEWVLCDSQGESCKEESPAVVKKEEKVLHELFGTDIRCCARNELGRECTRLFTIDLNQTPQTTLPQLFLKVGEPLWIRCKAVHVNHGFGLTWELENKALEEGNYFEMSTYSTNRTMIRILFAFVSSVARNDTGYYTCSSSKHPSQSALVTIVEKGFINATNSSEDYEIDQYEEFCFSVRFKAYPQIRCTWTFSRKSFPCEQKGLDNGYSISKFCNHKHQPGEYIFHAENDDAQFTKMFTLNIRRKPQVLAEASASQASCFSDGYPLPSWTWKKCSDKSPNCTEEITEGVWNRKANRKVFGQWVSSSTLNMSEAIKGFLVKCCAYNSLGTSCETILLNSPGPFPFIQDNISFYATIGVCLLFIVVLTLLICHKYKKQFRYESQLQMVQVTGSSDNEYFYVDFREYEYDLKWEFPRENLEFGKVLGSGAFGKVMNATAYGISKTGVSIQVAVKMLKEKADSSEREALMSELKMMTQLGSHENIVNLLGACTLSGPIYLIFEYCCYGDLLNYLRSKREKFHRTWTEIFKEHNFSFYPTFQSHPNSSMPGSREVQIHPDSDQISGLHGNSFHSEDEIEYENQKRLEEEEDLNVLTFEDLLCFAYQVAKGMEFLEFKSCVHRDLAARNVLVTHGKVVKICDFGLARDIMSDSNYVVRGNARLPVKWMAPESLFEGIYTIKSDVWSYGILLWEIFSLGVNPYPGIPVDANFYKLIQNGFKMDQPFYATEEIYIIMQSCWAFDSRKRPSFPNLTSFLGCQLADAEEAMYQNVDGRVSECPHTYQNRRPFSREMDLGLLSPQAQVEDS
Here is the method:
as §1, §2, §3, §4, §5

In the next experiment the target is T4, FLT3 D835Y (Homo sapiens, UniProt P36888, D835Y).
T4 construct: purchased ThermoFisher USA (contract testing)
T4 sequence (P36888 27-993 D835Y): T3 sequence (P36888 27-993) with D809Y
The method, then: as §1, §2, §3, §4, §5

The next experiment concerns the target T5, GSK3A (GSK3 alpha) (Homo sapiens, UniProt P49840).
T5 construct: purchased ThermoFisher USA (contract testing)
The method, then: as §1, §2, §3, §4, §5

The next experiment has as its target T6, GRK4 (Homo sapiens, UniProt P32298).
T6 construct: purchased ThermoFisher USA (contract testing)
Here is the method: as §1, §2, §3, §4, §5

The target of the next experiment is T7, JAK2 (Homo sapiens, UniProt O60674).
T7 construct: purchased ThermoFisher USA (contract testing)
T7 sequence (O60674 whole entry): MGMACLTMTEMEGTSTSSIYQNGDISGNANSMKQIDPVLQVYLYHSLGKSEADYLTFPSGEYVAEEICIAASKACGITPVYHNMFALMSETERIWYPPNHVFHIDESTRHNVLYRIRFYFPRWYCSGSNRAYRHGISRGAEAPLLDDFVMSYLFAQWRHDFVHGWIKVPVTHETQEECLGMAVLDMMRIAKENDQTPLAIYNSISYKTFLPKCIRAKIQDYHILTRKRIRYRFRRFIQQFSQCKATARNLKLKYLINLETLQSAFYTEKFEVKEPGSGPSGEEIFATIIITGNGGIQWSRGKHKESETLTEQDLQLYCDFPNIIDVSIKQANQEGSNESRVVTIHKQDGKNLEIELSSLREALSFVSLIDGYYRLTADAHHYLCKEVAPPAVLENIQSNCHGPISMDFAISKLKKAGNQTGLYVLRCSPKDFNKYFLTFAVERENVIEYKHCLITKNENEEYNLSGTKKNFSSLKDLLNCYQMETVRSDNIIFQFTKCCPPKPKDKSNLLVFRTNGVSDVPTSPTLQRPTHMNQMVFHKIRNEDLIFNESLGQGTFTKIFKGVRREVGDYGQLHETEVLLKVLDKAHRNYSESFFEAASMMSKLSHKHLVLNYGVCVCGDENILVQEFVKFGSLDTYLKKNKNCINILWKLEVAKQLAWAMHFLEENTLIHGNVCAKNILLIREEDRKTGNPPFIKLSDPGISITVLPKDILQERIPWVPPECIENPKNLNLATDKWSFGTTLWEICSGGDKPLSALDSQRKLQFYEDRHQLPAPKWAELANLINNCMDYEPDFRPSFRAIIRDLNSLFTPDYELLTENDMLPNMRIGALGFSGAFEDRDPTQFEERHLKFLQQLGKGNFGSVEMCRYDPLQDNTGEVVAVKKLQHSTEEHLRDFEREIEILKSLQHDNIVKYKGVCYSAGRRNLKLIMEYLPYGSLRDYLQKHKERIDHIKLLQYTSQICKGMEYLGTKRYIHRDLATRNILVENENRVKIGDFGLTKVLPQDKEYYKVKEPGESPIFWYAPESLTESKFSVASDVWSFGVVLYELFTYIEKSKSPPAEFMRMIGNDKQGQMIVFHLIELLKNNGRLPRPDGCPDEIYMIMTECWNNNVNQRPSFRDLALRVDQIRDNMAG
Here is the method: as §1, §2, §3, §4, §5

In a further experiment the target is T8, CDK8/ cyclin C (Homo sapiens, UniProt P49336).
T8 construct: purchased ThermoFisher USA (contract testing)
T8 sequence (P49336 whole entry): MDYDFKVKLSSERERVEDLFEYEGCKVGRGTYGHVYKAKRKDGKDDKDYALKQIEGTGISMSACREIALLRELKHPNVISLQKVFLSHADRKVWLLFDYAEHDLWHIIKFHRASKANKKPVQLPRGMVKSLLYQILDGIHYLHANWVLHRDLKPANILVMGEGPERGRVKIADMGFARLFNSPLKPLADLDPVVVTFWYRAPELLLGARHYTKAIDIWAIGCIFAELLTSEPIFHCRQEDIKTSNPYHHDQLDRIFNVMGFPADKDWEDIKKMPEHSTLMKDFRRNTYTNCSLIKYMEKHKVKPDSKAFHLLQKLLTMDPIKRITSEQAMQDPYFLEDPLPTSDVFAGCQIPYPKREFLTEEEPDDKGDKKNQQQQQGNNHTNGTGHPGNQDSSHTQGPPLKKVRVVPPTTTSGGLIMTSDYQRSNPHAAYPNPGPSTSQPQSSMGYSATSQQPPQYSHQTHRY
T8 sequence (P24863 whole entry partner): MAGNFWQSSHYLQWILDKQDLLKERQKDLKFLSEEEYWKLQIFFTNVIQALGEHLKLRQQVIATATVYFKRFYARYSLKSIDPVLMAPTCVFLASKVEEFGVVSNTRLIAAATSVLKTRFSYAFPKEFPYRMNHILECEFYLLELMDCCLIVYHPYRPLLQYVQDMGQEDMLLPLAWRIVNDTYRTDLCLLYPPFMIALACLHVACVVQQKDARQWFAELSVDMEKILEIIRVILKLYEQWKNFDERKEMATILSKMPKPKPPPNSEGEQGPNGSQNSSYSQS
Here is the method: as §1, §2, §3, §4, §5

Changes are numbered by the printed parent chain.

T2 sequence (P49841 whole entry): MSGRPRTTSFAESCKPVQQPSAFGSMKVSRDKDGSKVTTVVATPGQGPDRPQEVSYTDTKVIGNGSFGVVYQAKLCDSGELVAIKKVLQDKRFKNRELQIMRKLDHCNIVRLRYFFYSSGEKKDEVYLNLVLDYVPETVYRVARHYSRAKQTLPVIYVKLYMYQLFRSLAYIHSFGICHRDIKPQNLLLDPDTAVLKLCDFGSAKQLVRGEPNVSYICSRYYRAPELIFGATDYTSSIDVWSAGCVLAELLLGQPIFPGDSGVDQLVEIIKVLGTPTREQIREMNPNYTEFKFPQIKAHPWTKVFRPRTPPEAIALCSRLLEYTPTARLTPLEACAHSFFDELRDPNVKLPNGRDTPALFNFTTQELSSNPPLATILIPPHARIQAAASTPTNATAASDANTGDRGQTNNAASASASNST
T6 sequence (P32298 whole entry): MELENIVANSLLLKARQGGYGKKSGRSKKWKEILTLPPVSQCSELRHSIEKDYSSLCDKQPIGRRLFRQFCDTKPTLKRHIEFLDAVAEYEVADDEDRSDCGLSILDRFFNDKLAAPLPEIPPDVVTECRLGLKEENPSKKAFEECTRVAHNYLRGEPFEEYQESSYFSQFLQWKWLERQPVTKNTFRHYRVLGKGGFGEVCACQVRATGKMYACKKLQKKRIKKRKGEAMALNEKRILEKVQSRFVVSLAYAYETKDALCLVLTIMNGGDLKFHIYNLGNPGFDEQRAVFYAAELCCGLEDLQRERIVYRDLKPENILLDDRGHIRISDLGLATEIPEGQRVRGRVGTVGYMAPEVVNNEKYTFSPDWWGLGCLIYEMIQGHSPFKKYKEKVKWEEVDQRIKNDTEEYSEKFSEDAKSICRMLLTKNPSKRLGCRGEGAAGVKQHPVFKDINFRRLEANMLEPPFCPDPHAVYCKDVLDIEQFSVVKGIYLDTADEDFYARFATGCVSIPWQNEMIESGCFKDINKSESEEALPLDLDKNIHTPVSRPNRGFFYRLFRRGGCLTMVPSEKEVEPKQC
T5 sequence (P49840 whole entry): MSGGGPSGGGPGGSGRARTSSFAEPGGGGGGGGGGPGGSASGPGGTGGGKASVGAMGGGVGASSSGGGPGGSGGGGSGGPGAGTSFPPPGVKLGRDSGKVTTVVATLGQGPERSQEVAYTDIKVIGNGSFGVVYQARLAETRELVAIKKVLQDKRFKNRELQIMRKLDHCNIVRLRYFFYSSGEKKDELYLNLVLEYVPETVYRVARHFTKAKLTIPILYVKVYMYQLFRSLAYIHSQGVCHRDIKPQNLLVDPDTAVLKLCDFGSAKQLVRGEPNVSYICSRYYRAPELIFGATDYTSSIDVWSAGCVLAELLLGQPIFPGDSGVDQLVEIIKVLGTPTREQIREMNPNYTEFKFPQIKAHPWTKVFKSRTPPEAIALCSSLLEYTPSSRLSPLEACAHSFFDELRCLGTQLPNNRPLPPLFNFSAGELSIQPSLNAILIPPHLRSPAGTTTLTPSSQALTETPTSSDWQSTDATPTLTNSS
T1 sequence (P08581 25-1390): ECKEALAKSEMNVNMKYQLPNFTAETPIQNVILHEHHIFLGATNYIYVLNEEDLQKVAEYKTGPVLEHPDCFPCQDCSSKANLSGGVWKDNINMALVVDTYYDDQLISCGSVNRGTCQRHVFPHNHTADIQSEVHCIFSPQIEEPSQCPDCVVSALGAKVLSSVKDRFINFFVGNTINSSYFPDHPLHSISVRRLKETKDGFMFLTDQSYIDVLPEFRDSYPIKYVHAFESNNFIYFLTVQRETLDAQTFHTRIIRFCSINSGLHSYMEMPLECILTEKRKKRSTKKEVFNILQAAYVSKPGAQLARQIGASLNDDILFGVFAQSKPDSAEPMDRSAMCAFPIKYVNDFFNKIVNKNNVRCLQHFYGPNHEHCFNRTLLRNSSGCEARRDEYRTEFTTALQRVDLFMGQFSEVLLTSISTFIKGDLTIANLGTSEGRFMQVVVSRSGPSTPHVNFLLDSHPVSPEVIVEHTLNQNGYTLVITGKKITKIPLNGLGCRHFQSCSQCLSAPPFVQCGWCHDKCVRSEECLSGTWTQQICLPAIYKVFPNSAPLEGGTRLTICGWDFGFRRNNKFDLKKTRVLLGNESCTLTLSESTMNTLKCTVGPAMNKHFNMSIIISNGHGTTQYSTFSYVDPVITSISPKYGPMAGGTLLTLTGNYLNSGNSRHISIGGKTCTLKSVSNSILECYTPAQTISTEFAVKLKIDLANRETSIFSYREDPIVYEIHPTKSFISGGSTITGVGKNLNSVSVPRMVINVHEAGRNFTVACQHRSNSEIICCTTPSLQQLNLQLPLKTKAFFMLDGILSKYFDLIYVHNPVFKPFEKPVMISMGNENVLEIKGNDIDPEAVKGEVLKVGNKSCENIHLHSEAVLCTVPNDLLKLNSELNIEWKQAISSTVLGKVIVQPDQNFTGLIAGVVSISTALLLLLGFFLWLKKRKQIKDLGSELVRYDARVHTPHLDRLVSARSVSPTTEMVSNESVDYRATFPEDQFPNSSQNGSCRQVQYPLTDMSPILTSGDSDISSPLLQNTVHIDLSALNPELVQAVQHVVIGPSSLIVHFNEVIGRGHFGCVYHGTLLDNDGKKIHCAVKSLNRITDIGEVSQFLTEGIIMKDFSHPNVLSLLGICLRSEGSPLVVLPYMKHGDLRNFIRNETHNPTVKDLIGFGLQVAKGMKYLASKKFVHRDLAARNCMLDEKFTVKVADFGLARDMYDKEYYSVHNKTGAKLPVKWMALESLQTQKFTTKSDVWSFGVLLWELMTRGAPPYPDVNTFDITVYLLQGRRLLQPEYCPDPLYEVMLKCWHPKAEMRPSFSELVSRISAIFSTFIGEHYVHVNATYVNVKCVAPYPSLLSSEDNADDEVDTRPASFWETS

Consider `C[C@@H]1OCC2(CCN(c3cnc(Sc4ccnc(N)c4Cl)c(N)n3)CC2)[C@@H]1N` [TNO-155, reference compound], for which the “Inhibition (%) Target 1” value amounted to 42% at MET (cMet); 96% at GSK3B (GSK3 beta); 96% on FLT3; 71% on FLT3 D835Y; 92% at GSK3A (GSK3 alpha); 96% at GRK4. In addition, the “Inhibition (%) Target 1” value on JAK2 is given as 61%; on CDK8/ cyclin C, 89%. For the same molecule, the “Inhibition (%) Target 2” value came to 40% on MET (cMet); 96% at GSK3B (GSK3 beta); 97% at FLT3; 69% at FLT3 D835Y; 87% at GSK3A (GSK3 alpha); 95% at GRK4. In addition, the “Inhibition (%) Target 2” value at JAK2 is 57%; on CDK8/ cyclin C, 89%. The “Inhibition (%) Mean value” at MET (cMet) was 41%; at GSK3B (GSK3 beta), 96%; on FLT3, 97%; at FLT3 D835Y, 70%; on GSK3A (GSK3 alpha), 90%; at GRK4, 95%. For the same molecule, the “Inhibition (%) Mean value” worked out at 59% on JAK2 and 89% at CDK8/ cyclin C.

For the molecule `C[C@@H]1OCC2(CCN(c3ncc(Sc4ccnc(N5CC(C(C)(C)O)C5)c4Cl)nc3CO)CC2)[C@@H]1N` [Example 12, 2-(1-(4-(5-((3S,4S)-4-amino-3-methyl-2-oxa-8-azaspiro[4.5]decan-8-yl)-6-(hydroxymethyl)pyrazin-2-ylthio)-3-chloropyridin-2-yl)azetidin-3-yl)propan-2-ol], the “Inhibition (%) Target 1” value at MET (cMet) was −1%; on GSK3B (GSK3 beta) it was 7%; at FLT3 it was 11%; on FLT3 D835Y it was 5%; on GSK3A (GSK3 alpha) it was 9%; on GRK4, 9%. The figures for the “Inhibition (%) Target 1” value on JAK2 and at CDK8/ cyclin C were −7% and 7%, respectively. Besides, the “Inhibition (%) Target 2” value at MET (cMet) is listed as 16%; at GSK3B (GSK3 beta), 7%; on FLT3, 8%; on FLT3 D835Y, 6%; on GSK3A (GSK3 alpha) it was 8%; on GRK4, 7%. For the same molecule, the “Inhibition (%) Target 2” value on JAK2 is −2%; on CDK8/ cyclin C, −3%. The “Inhibition (%) Mean value” was determined as 7% on MET (cMet); 7% at GSK3B (GSK3 beta); 9% at FLT3; 6% on FLT3 D835Y; 8% at GSK3A (GSK3 alpha); 8% on GRK4. Besides, the “Inhibition (%) Mean value” was −4% at JAK2 and 2% on CDK8/ cyclin C.
